Source: a flash point compilation (Sun et al. 2020)

Row | Structure (SMILES) | flash point [°C]
1 | Cc1cccc(C#N)c1 [3-methylbenzonitrile] | 87.00
2 | CC(C)=CCO [3-methylbut-2-en-1-ol] | 50.00
3 | CC(C)=CC=O [3-methylbut-2-enal] | 37.00
4 | CC(C)C(C)O (stereo not given) [3-methylbutan-2-ol] | 33.00
5 | CC(=O)C(C)C [3-methylbutan-2-one] | 6.00
6 | CC(C)CC=O [3-methylbutanal] | 13.00
7 | CC(=O)OCCC(C)C [3-methylbutyl acetate] | 25.00
8 | CC1CCCC(O)C1 (stereo not given) [3-methylcyclohexan-1-ol] | 62.00
9 | Cc1cccc(O)c1 [3-methylphenol] | 86.00
10 | O=CC=Cc1ccccc1 [3-phenylprop-2-enal] | 120.00
11 | COc1cc(-c2ccc(N)c(OC)c2)ccc1N [4-(4-amino-3-methoxyphenyl)-2-methoxyaniline] | 206.00
12 | Nc1ccc(Oc2ccc(N)cc2)cc1 [4-(4-aminophenoxy)aniline] | 219.00
13 | Nc1ccc(Cc2ccc(N)cc2)cc1 [4-[(4-aminophenyl)methyl]aniline] | 221.00
14 | Oc1ccc(Cl)cc1 [4-chlorophenol] | 121.00
15 | COP(=S)(OC)Oc1ccc(C#N)cc1 [4-dimethoxyphosphinothioyloxybenzonitrile] | 104.00
16 | CCOc1ccc(N)cc1 [4-ethoxyaniline] | 116.00
17 | CC(=O)CC(C)(C)O [4-hydroxy-4-methylpentan-2-one] | 52.00
18 | COc1ccc(C=O)cc1 [4-methoxybenzaldehyde] | 116.00
19 | Cc1ccc(N)cc1N [4-methylbenzene-1,3-diamine] | 149.00
20 | CC1CC(=O)O1 (stereo not given) [4-methyloxetan-2-one] | 60.00
21 | CC(C)CC(C)N (stereo not given) [4-methylpentan-2-amine] | 13.00
22 | O=[N+]([O-])c1ccc(Nc2ccccc2)cc1 [4-nitro-N-phenylaniline] | 190.00
23 | Nc1ccc([N+](=O)[O-])cc1 [4-nitroaniline] | 199.00
24 | CCCCCCCCCc1ccc(O)cc1 [4-nonylphenol] | 113.00
25 | Oc1ccc(-c2ccccc2)cc1 [4-phenylphenol] | 166.00
26 | CC(C)(C)c1ccc(O)cc1 [4-tert-butylphenol] | 113.00
27 | CCCCOCCOCCOCc1cc2c(cc1CCC)OCO2 [5-[2-(2-butoxyethoxy)ethoxymethyl]-6-propyl-1,3-benzodioxole] | 171.00
28 | CC1CCC(=O)O1 (stereo not given) [5-methyloxolan-2-one] | 81.00
29 | C=CC(=O)OCCCCCC(C)C [6-methylheptyl prop-2-enoate] | 91.00
30 | C=CC(=O)OCCCCCCCC(C)C [8-methylnonyl prop-2-enoate] | 116.00

Second part, the compound after the results:

Row | flash point [°C] | Structure (SMILES)
31 | 36.00 | Cc1cccnc1 [3-methylpyridine]
32 | 126.00 | OCC=Cc1ccccc1 [3-phenylprop-2-en-1-ol]
33 | -7.00 | C=CCOCC=C [3-prop-2-enoxyprop-1-ene]
34 | 53.00 | CCCOCCCO [3-propoxypropan-1-ol]
35 | 98.00 | CCO[Si](CCCN)(OCC)OCC [3-triethoxysilylpropan-1-amine]
36 | 92.00 | C=C(C)C(=O)OCCC[Si](OC)(OC)OC [3-trimethoxysilylpropyl 2-methylprop-2-enoate]
37 | 149.00 | O=C1OC(=O)C2CCCCC12 (stereo not given) [3a,4,5,6,7,7a-hexahydro-2-benzofuran-1,3-dione]
38 | 49.00 | CC1(C)COCN1 [4,4-dimethyl-1,3-oxazolidine]
39 | 195.00 | Nc1ccc(O)cc1 [4-aminophenol]
40 | 88.00 | O=Cc1ccc(Cl)cc1 [4-chlorobenzaldehyde]
41 | 50.00 | O=C(Nc1cccc(Cl)c1)OCC#CCCl [4-chlorobut-2-ynyl N-(3-chlorophenyl)carbamate]
42 | 104.00 | CCc1ccc(O)cc1 [4-ethylphenol]
43 | 74.00 | Nc1ccc(F)cc1 [4-fluoroaniline]
44 | 61.00 | COC(C)(C)CC(C)=O [4-methoxy-4-methylpentan-2-one]
45 | 79.00 | CC1=CCC(O)(C(C)C)CC1 (stereo not given) [4-methyl-1-propan-2-ylcyclohex-3-en-1-ol]
46 | 202.00 | Cc1ccc(S(N)(=O)=O)cc1 [4-methylbenzenesulfonamide]
47 | 184.00 | Cc1ccc(S(=O)(=O)O)cc1 [4-methylbenzenesulfonic acid]
48 | 128.00 | Cc1ccc(S(=O)(=O)Cl)cc1 [4-methylbenzenesulfonyl chloride]
49 | 24.00 | CN1CCOCC1 [4-methylmorpholine]
50 | -32.00 | C=CCC(C)C [4-methylpent-1-ene]

Row | flash point [°C] | Structure (SMILES)
51 | 45.00 | CC(=O)OC(C)CC(C)C (stereo not given) [4-methylpentan-2-yl acetate]
52 | 86.00 | Cc1ccc(O)cc1 [4-methylphenol]
53 | 57.00 | Cc1ccncc1 [4-methylpyridine]
54 | 202.00 | O=C(O)c1ccc([N+](=O)[O-])cc1 [4-nitrobenzoic acid]
55 | 192.00 | O=[N+]([O-])c1ccc(O)cc1 [4-nitrophenol]
56 | 213.00 | CCCCCCCCc1ccc(Nc2ccc(CCCCCCCC)cc2)cc1 [4-octyl-N-(4-octylphenyl)aniline]
57 | 74.00 | C=Cc1ccc(C)nc1 [5-ethenyl-2-methylpyridine]
58 | 91.00 | CC1CCC(C(C)C)C(O)C1 (stereo not given) [5-methyl-2-propan-2-ylcyclohexan-1-ol]
59 | 110.00 | Cc1ccc(C(C)C)c(O)c1 [5-methyl-2-propan-2-ylphenol]
60 | 43.00 | CCC(=O)CC(C)CC (stereo not given) [5-methylheptan-3-one]
61 | 57.00 | CC(=O)CCC=C(C)C [6-methylhept-5-en-2-one]
62 | 82.00 | CC(C)CCCCCO [6-methylheptan-1-ol]
63 | 207.00 | CC(C)CCCCCOC(=O)C(C)Oc1cc(Cl)c(Cl)cc1Cl (stereo not given) [6-methylheptyl 2-(2,4,5-trichlorophenoxy)propanoate]
64 | 48.00 | CC(C)CCCCCOC(=O)COc1ccc(Cl)cc1Cl [6-methylheptyl 2-(2,4-dichlorophenoxy)acetate]
65 | 94.00 | CC(C)(C)CCCCCC(=O)O [7,7-dimethyloctanoic acid]
66 | 39.00 | C=CC(=C)CCC=C(C)C [7-methyl-3-methylideneocta-1,6-diene]
67 | 104.00 | CC(C)CCCCCCCO [8-methylnonan-1-ol]
68 | 85.00 | CC(C)CCCCCCC=O [8-methylnonanal]
69 | 220.00 | c1ccc2c(c1)[nH]c1ccccc12 [9H-carbazole]
70 | 151.00 | c1ccc2c(c1)Cc1ccccc1-2 [9H-fluorene]
